Measurements published in paper PMC9386018, “A lymphatic-absorbed multi-targeted kinase inhibitor for myelofibrosis therapy” (Nature Communications, 2022).
Several values for one entry are separate records, joined by “and”; a condition that tells them apart may be missing. Equal entries are not always repeated.

How the values were obtained:
[1] = Pharmacokinetic analysis of plasma after intravenous and oral dosing; details: plasma, mice, analyte = label, individual animals
Protocol: Samples were centrifuged at 15,000 rpm for 10 min, then blood plasma was collected from the upper layer and frozen at −80 °C until analysis. […] Sample processing, chromatographic separation, MS, and MS/MS parameters used for analysis were determined by the core. […] Standard curves for peak area ratio of compound to internal standard (Astd/AIstd) vs. compound concentration were used to determine sample analyte concentrations through linear regression with a weighting average of 1/X^2. […] All pharmacokinetic parameters were estimated using non-compartmental analysis with Phoenix/WINONLIN, and provided by the core along with calculated sample analyte concentrations. Data was generated from n ≥ 3 individual animals sampled per time point per compound for each method of dosing.

[2] = target: Target kinase isoforms (PI3K, mTOR, RAF, MEK) (Homo sapiens, UniProt P42338); experiment: Target kinase isoforms 10-point IC50 determination (Supplementary Fig. 7); type: biochemical; details: PI3K beta
Sequence of Target kinase isoforms (PI3K, mTOR, RAF, MEK) (Homo sapiens, UniProt P42338) (P42338 whole entry, canonical isoform): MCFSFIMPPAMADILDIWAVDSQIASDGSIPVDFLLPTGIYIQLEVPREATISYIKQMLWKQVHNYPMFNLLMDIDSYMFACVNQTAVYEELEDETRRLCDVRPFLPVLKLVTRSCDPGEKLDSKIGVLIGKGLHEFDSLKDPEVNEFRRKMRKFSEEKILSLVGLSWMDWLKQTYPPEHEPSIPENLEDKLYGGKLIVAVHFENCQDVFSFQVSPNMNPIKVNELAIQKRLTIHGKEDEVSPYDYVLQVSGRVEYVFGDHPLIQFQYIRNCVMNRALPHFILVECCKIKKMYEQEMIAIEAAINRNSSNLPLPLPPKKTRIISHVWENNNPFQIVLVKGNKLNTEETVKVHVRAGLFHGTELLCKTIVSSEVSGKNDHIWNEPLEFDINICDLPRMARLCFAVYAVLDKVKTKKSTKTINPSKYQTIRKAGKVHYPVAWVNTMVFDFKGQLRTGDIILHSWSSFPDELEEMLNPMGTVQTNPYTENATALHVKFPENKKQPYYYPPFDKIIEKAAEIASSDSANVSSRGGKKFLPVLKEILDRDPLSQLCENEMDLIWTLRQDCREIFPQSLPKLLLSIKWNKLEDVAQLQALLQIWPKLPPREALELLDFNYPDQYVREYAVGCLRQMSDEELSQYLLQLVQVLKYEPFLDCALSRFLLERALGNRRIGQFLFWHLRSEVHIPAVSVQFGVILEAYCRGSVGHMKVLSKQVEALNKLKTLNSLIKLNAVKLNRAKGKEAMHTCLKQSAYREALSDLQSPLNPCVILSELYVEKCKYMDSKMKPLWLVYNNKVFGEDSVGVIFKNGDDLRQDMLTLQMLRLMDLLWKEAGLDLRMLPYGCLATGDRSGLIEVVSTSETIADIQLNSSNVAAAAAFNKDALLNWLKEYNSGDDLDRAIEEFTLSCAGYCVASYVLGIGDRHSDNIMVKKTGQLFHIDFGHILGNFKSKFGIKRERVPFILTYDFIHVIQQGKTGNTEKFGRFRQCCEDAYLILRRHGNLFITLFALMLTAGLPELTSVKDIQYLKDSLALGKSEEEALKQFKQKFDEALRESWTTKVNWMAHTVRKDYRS
Text: (§1) The average percent kinase inhibition from replicate data was ranked low to high, converted to a compatible identifier format, then input into Coral Human Kinome Visualization software for presentation analysis. […] Scaling of evolutionary distance for PI kinases is only relative and is based on literature analysis[62],[63]. Average percent kinome inhibition values from replicate data are supplied in Source Data file. […] Corrected data was normalized to vehicle treated control values, and dose response percent kinase activity was analyzed by non-linear regression for determination of IC50 values.

[3] = target: Target kinase isoforms (PI3K, mTOR, RAF, MEK) (Homo sapiens, UniProt P42336); experiment: as above; type: biochemical; details: PI3K alpha
Sequence of Target kinase isoforms (PI3K, mTOR, RAF, MEK) (Homo sapiens, UniProt P42336) (P42336 whole entry, canonical isoform): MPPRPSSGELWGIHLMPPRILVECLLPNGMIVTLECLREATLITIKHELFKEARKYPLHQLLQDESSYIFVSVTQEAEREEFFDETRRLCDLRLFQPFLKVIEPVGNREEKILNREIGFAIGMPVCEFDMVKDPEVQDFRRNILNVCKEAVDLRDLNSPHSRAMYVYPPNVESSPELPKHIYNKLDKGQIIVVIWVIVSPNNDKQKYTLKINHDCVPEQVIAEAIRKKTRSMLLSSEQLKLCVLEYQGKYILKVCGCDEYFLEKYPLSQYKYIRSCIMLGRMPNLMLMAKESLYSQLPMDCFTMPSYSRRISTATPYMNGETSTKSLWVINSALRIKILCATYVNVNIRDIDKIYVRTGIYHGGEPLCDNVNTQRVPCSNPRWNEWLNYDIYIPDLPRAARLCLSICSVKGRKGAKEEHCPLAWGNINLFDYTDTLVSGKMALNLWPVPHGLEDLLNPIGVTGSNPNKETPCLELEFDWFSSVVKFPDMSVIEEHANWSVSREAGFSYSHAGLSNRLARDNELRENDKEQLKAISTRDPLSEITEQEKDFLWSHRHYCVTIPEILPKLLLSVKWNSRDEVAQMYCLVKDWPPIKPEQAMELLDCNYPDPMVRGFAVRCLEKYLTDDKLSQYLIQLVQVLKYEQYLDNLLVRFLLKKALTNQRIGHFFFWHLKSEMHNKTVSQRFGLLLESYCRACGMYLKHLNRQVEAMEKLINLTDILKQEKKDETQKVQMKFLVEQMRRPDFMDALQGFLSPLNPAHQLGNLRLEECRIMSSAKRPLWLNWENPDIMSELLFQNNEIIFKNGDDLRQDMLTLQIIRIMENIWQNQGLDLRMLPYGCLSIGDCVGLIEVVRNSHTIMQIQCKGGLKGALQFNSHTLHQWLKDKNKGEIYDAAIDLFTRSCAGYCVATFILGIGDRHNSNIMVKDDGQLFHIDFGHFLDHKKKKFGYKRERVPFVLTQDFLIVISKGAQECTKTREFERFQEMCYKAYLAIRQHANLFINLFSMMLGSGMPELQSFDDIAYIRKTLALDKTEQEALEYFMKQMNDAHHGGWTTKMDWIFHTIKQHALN
Text: as §1

[4] = target: Target kinase isoforms (PI3K, mTOR, RAF, MEK) (Homo sapiens, UniProt P42345); experiment: as above; type: biochemical; details: mTOR
Text: as §1

[5] = target: Target kinase isoforms (PI3K, mTOR, RAF, MEK) (Homo sapiens, UniProt P48736); experiment: as above; type: biochemical; details: PI3K gamma
Sequence of Target kinase isoforms (PI3K, mTOR, RAF, MEK) (Homo sapiens, UniProt P48736) (P48736 whole entry, canonical isoform): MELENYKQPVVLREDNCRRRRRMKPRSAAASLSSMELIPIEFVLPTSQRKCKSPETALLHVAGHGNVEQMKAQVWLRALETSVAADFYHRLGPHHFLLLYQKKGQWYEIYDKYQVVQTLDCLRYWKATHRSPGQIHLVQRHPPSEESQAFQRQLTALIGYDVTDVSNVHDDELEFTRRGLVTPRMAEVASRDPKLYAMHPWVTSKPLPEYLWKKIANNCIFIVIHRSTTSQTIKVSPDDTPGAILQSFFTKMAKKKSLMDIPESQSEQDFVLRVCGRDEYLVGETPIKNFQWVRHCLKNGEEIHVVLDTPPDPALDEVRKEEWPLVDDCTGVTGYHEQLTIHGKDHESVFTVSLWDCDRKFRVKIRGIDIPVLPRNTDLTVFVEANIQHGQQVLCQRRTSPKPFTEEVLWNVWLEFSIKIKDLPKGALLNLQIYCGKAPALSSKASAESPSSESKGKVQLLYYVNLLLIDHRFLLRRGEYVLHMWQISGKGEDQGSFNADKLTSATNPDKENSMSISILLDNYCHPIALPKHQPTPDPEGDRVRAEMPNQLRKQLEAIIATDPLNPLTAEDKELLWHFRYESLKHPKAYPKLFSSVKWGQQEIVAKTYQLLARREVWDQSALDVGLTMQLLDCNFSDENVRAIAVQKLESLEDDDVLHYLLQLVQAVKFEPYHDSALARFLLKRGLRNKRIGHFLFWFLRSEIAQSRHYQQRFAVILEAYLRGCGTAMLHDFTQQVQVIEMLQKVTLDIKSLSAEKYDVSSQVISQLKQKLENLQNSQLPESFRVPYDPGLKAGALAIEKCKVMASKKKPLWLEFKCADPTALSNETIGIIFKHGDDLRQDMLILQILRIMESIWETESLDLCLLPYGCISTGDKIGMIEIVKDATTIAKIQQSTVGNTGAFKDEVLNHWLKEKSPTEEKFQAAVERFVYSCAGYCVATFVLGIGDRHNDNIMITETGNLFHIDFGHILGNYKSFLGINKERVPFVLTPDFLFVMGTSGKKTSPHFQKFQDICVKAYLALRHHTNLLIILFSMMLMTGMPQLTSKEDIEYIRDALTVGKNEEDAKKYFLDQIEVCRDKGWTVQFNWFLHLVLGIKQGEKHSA
Text: as §1

[6] = concentration 0.495 nM, 0.000495 µM
[7] = concentration 1.52 nM, 0.00152 µM
[8] = concentration 4.57 nM, 0.00457 µM

concentration at 0.167 h ([1]; female, CD-1, mouse, iv, 15 mg kg^−1, Concentration (ng/mL), single i.v. LP-182 15 mg kg^−1, 0.167 h): 15.5 ng/mL | concentration at 0.5 h ([1]; female, CD-1, mouse, iv, 15 mg kg^−1, Concentration (ng/mL), single i.v. LP-182 15 mg kg^−1, 0.5 h): 7.17 ng/mL | concentration at 1 h ([1]; female, CD-1, mouse, iv, 15 mg kg^−1, Concentration (ng/mL), single i.v. LP-182 15 mg kg^−1, 1 h): 6.53 ng/mL | concentration at 0.5 h ([1]; female, CD-1, mouse, po, 400 mg kg^−1, Concentration (ng/mL), single p.o. LP-182 400 mg kg^−1, 0.5 h): 9.62 ng/mL | concentration at 16 h ([1]; female, CD-1, mouse, po, 400 mg kg^−1, Concentration (ng/mL), single p.o. LP-182 400 mg kg^−1, 16 h): 19 ng/mL | Concentration ([1]; single i.v. LP-182 15 mg kg^−1, 0.167 h): 14.8 ng/mL and 14.5 ng/mL | Concentration ([1]; single i.v. LP-182 15 mg kg^−1, 0.5 h): 7.97 ng/mL and 7.89 ng/mL | Concentration ([1]; single i.v. LP-182 15 mg kg^−1, 1 h): 5.65 ng/mL and 6.42 ng/mL | Concentration ([1]; single i.v. LP-182 15 mg kg^−1, 2 h): 2.97 ng/mL and 2.53 ng/mL and 1.08 ng/mL | Concentration ([1]; single p.o. LP-182 400 mg kg^−1, 0.167 h): 7.25 ng/mL and 15.1 ng/mL and 1.83 ng/mL | Concentration ([1]; single p.o. LP-182 400 mg kg^−1, 0.5 h): 13.1 ng/mL and 15 ng/mL | Concentration ([1]; single p.o. LP-182 400 mg kg^−1, 1 h): 29.3 ng/mL and 56.7 ng/mL and 12.7 ng/mL | Concentration ([1]; single p.o. LP-182 400 mg kg^−1, 2 h): 12.6 ng/mL and 14.5 ng/mL and 5.44 ng/mL | Concentration ([1]; single p.o. LP-182 400 mg kg^−1, 4 h): 23.5 ng/mL and 11.5 ng/mL and 14 ng/mL | Concentration ([1]; single p.o. LP-182 400 mg kg^−1, 7 h): 27.3 ng/mL and 11.6 ng/mL and 31.5 ng/mL | Concentration ([1]; single p.o. LP-182 400 mg kg^−1, 16 h): 12.8 ng/mL and 13.1 ng/mL | Concentration ([1]; single p.o. LP-182 400 mg kg^−1, 24 h): 24.5 ng/mL and 9.81 ng/mL and 21.4 ng/mL | Kinase Activity (%) PI3K beta ([2]; concentration 0.0187 nM, 18.7 pM): 86% and 99% and 98% | Kinase Activity (%) PI3K beta ([2]; concentration 0.0562 nM, 56.2 pM): 94% and 122% and 99% and 98% | Kinase Activity (%) PI3K beta ([2]; concentration 123 nM, 0.123 µM): 6% and 7% and 8% and 13% | activity at […] ([2]; concentration 370 nM): 4% | Kinase Activity (%) PI3K beta ([2]; concentration 370 nM, […]): 3% | activity at 1.11 µM ([2]; concentration 1110 nM): 5% | Kinase Activity (%) PI3K beta ([2]; concentration 1110 nM, 1.11 µM): 3% | Kinase Activity (%) PI3K beta ([2]; concentration 3330 nM, 3.33 µM): 7% and 6% and 3% | Kinase Activity (%) PI3K beta ([2]; concentration 10000 nM, 10 µM): 7% and 0% and 3% | activity at 6.09 pM ([2]; concentration […]): 108% | Kinase Activity (%) PI3K alpha ([3]; concentration 0.00626 nM, 6.26 pM): 96% and 108% and 85% and 101% | activity at 18.8 pM ([3]; concentration 0.0188 nM): 97% | Kinase Activity (%) PI3K alpha ([3]; concentration 0.0188 nM, 18.8 pM): 110% and 96% and 100% | activity at 56.4 pM ([3]; concentration 0.0564 nM): 104% | Kinase Activity (%) PI3K alpha ([3]; concentration 0.0564 nM, 56.4 pM): 103% and 96% and 99% | activity at 0.000495 µM ([3]; concentration 0.495 nM): 47% | Kinase Activity (%) PI3K alpha [3, 6]: 55% and 56% and 58% | activity at 0.00152 µM ([3]; concentration 1.52 nM): 29% | Kinase Activity (%) PI3K alpha [3, 7]: 28% and 30% and 31% | activity at 0.00457 µM ([3]; concentration 4.57 nM): 15% | Kinase Activity (%) PI3K alpha [3, 8]: 11% and 9% | Kinase Activity (%) PI3K alpha ([3]; concentration 41.2 nM, 0.0412 µM): 3% and 2% and 0% | activity at 0.000495 µM ([4]; concentration 0.495 nM): 96% | Kinase Activity (%) mTOR [4, 6]: 89% and 90% and 92% | activity at 0.00152 µM ([4]; concentration 1.52 nM): 78% | Kinase Activity (%) mTOR [4, 7]: 80% and 77% and 74% and 83% and 76% | activity at 0.00457 µM ([4]; concentration 4.57 nM): 63% | Kinase Activity (%) mTOR [4, 8]: 61% and 56% and 52% and 57% and 58% | Kinase Activity (%) mTOR ([4]; concentration 123 nM, 0.123 µM): 7% and 3% and 2% and 5% and 0% | Kinase Activity (%) mTOR ([4]; concentration 1110 nM, 1.11 µM): 5% and 3% and 2% and -4% and -2% and -1% | Kinase Activity (%) mTOR ([4]; concentration 3330 nM, 3.33 µM): 3% and 2% and 1% and -3% and -2% and -4% | Kinase Activity (%) mTOR ([4]; concentration 10000 nM, 10 µM): 6% and 3% and 0% and -1% and 1% and -2% | activity at 18.7 pM ([5]; concentration 0.0187 nM): 118% | Kinase Activity (%) PI3K gamma ([5]; concentration 3330 nM, 3.33 µM): 0% and 3% | Kinase Activity (%) PI3K gamma ([5]; concentration 10000 nM, 10 µM): 3% and 0% and 8% | activity at 6.09 pM ([5]; concentration […]): 110%
SMILES: O=S(=O)(Nc1cc(-c2ccc3ncc(N4CCNCC4)nc3c2)cnc1Cl)c1ccc(F)cc1 [LP-527, N-(2-chloro-5-(3-(piperazin-1-yl)quinoxalin-6-yl)pyridin-3-yl)-4-fluorobenzenesulfonamide]
Kinase Activity (%) PI3K beta [2, 6]: 87% and 91% and 92% and 97% and 104% and 103% and 82% and 98%
